Test results as given in patent US9643946B2, “Tricyclic compound and use thereof” (SK CHEMICALS CO., LTD., priority 2013, dated 2017).

What follows are molecules tested against human GPR40 protein (Homo sapiens, UniProt O14842) (assay: GPR40 agonist binding inhibition (displacement of 3H-labeled propanoic acid radioligand)). Conditions: membrane protein including human GPR40, 3H-labeled propanoic acid radioligand, 25° C., 2 hours; read-out: Half maximal inhibitory concentration.
Method: Measurement of 50% Inhibitory Concentration (ID50) for GPR40 Agonist Binding
To examine the efficacy of the compounds according to one exemplary embodiment of the present invention in modulating GPR40, the half maximal inhibitory concentrations (IC50) of the compounds according to one exemplary embodiment of the present invention were measured by Microbeta2™ (PerkinElmer Inc.) using a change in radiation dose emitted from ^3H-labeled propanoic acid (i.e., 3-(4-((2,6′-dimethyl-6-((4-(^3H))-phenylmethoxy)biphenyl-3-yl)methoxy)phenyl)propanoic acid), which is a radioactive isotope which binds to a human GPR40 protein, as an indicator.
Specifically, a test compound was prepared by serial dilution with DMSO, and 100 μL of a binding buffer (including 25 mM HEPES (pH 7.5), 5 mM MgCl2, 100 mM NaCl, and 0.1% free fatty acid BSA; Sigma-Aldrich Corp.) was put into each well of a 96-well transparent plate. Thereafter, each of the diluted compound, propanoic acid which was prepared by dissolving propanoic acid in DMSO to a concentration of 500 mM and not labeled with a radioactive isotope, and DMSO was dispensed at 5 μL per well. ^3H-labeled propanoic acid was dissolved in a binding buffer at a concentration of 1 nM and dispensed at 50 μL into the corresponding wells, and a membrane protein including a human GPR40 protein was dissolved in a binding buffer at a concentration of 20 μg/well and dispensed at 100 μL, into the corresponding wells.
After the dispensation was completed, the plate was incubated at a temperature of 25° C. and a rotary speed of 230 rpm for 2 hours while shaking. A human GPR40 complex was transferred to Filtermat A (PerkinElmer Inc.) using a cell harvester (PerkinElmer Inc.), washed 10 times with 50 mM tris-HCl, dried, and then scintillated using Meltilex (PerkinElmer Inc.). Thereafter, an emitted radiation dose was measured using Microbeta2™. The radiation doses emitted from the complex in the well containing 10 mM unlabeled propanoic acid and the complex in the well containing DMSO alone were set as 0% and 100%, respectively. Thus, a change curve for each of the radiation doses was plotted to calculate the half maximal inhibitory concentration of the test compound.

Sequence of human GPR40 protein (O14842 whole entry): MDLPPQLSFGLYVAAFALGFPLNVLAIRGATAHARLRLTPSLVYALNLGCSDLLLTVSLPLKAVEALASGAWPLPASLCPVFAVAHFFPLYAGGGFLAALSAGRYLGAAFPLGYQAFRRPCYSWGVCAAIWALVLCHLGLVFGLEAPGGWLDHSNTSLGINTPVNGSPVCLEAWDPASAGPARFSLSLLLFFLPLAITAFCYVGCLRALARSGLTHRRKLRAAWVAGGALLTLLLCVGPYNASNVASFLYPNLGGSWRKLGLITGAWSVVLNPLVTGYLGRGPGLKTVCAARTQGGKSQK

Row | SMILES | IC50
1 | CCS(=O)(=O)CCCOc1ccc2c(c1)CCCc1cc(F)c(CNc3ccc([C@H]4C[C@@H]4C(=O)O)cc3)cc1-2 [Example 105, (1S,2S)-2-(4-(((9-(3-(ethylsulfonyl)propoxy)-3-fluoro-6,7-dihydro-5H-dibenzo[a,c][7]annulen-2-yl)methyl)amino)phenyl)cyclopropanecarboxylic acid] | 16.2 nM
2 | Cc1cc(OC2CCS(=O)(=O)CC2)cc2c1-c1cc(CNc3ccc([C@H]4C[C@@H]4C(=O)O)cc3)ccc1CCC2 [Example 76, (1S,2S)-2-(4-(((9-((1,1-dioxidotetrahydro-2H-thiopyran-4-yl)oxy)-11-methyl-6,7-dihydro-5H-dibenzo[a,c][7]annulen-2-yl)methyl)amino)phenyl)cyclopropanecarboxylic acid] | 14.7 nM
3 | Cc1cc(OCC2CCS(=O)(=O)CC2)cc2c1-c1cc(COc3ccc4c(c3)OC[C@H]4CC(=O)O)ccc1OCC2 [Example 47, 2-((3S)-6-((9-((1,1-dioxidotetrahydro-2H-thiopyran-4-yl)methoxy)-11-methyl-6,7-dihydrodibenzo[b,d]oxepin-2-yl)methoxy)-2,3-dihydrobenzofuran-3-yl)acetic acid] | 53.1 nM
4 | Cc1cc(OC2CCS(=O)(=O)CC2)cc2c1-c1cc(COc3ccc([C@H]4C[C@@H]4C(=O)O)cc3)ccc1CCC2 [Example 59, (1S,2S)-2-(4-((9-((1,1-dioxidotetrahydro-2H-thiopyran-4-yl)oxy)-11-methyl-6,7-dihydro-5H-dibenzo[a,c][7]annulen-2-yl)methoxy)phenyl)cyclopropanecarboxylic acid] | 71 nM
5 | CCS(=O)(=O)CCCOc1cc(C)c2c(c1)CCOc1ccc(COc3ccc4c(c3)OC[C@H]4CC(=O)O)cc1-2 [Example 38, 2-((3S)-6-((9-(3-(ethylsulfonyl)propoxy)-11-methyl-6,7-dihydrodibenzo[b,d]oxepin-2-yl)methoxy)-2,3-dihydrobenzofuran-3-yl)acetic acid] | 39.1 nM
6 | Cc1cc(OCCCS(C)(=O)=O)cc2c1-c1cc(COc3ccc4c(c3)OC[C@H]4CC(=O)O)ccc1OCC2 [Example 14, 2-((3S)-6-((11-methyl-9-(3-(methylsulfonyl)propoxy)-6,7-dihydrodibenzo[b,d]oxepin-2-yl)methoxy)-2,3-dihydrobenzofuran-3-yl)acetic acid] | 17.7 nM
7 | CCS(=O)(=O)CCCOc1cc(C)c2c(c1)CCOc1ccc(COc3ccc([C@H]4C[C@@H]4C(=O)O)c(F)c3)cc1-2 [Example 41, (1S,2S)-2-(4-((9-(3-(ethylsulfonyl)propoxy)-11-methyl-6,7-dihydrodibenzo[b,d]oxepin-2-yl)methoxy)-2-fluorophenyl)cyclopropanecarboxylic acid] | 125 nM
8 | C[C@@H]1Cc2cc(OCCCS(C)(=O)=O)ccc2-c2cc(COc3ccc4c(c3)OC[C@H]4CC(=O)O)ccc2O1 [Example 79, 2-((S)-6-(((R)-6-methyl-9-(3-(methylsulfonyl)propoxy)-6,7-dihydrodibenzo[b,d]oxepin-2-yl)methoxy)-2,3-dihydrobenzofuran-3-yl)acetic acid] | 84.4 nM
9 | CS(=O)(=O)CCCOc1ccc2c(c1)CCCc1ccc(COc3ccc([C@H]4C[C@@H]4C(=O)O)cc3)cc1-2 [Example 25, (1S,2S)-2-(4-((9-(3-(methylsulfonyl)propoxy)-6,7-dihydro-5H-dibenzo[a,c][7]annulen-2-yl)methoxy)phenyl)cyclopropanecarboxylic acid] | 103 nM
10 | CC1(COc2ccc3c(c2)CCCc2ccc(COc4ccc5c(c4)OC[C@H]5CC(=O)O)cc2-3)CCS(=O)(=O)CC1 [Example 93, (S)-2-(6-((9-((4-methyl-1,1-dioxidotetrahydro-2H-thiopyran-4-yl)methoxy)-6,7-dihydro-5H-dibenzo[a,c][7]annulen-2-yl)methoxy)-2,3-dihydrobenzofuran-3-yl)acetic acid] | 50.5 nM
11 | Cc1cc(OCCCS(C)(=O)=O)cc2c1-c1cccc(COc3ccc4c(c3)OC[C@H]4CC(=O)O)c1CCC2 [Example 1, 2-((3S)-6-((11-methyl-9-(3-(methylsulfonyl)propoxy)-6,7-dihydro-5H-dibenzo[a,c][7]annulen-4-yl)methoxy)-2,3-dihydrobenzofuran-3-yl)acetic acid] | 158 nM
12 | O=C(O)C[C@@H]1COc2cc(OCc3ccc4c(c3)-c3ccc(OCC5(O)CCS(=O)(=O)CC5)cc3CCC4)ccc21 [Example 65, (S)-2-(6-((9-((4-hydroxy-1,1-dioxidotetrahydro-2H-thiopyran-4-yl)methoxy)-6,7-dihydro-5H-dibenzo[a,c][7]annulen-2-yl)methoxy)-2,3-dihydrobenzofuran-3-yl)acetic acid] | 160 nM
13 | Cc1nc(N2CCOCC2)nc2c1-c1cc(COc3ccc4c(c3)OC[C@H]4CC(=O)O)ccc1CCC2 [Example 81, 2-((3S)-6-((1-methyl-3-morpholino-6,7-dihydro-5H-benzo[3,4]cyclohepta[1,2-d]pyrimidin-10-yl)methoxy)-2,3-dihydrobenzofuran-3-yl)acetic acid] | 181 nM
14 | Cc1cc(OCCCS(C)(=O)=O)cc2c1-c1cc(COc3ccc([C@H]4C[C@@H]4C(=O)O)cc3)ccc1CC2 [Example 31, (1S,2S)-2-(4-((5-methyl-7-(3-(methylsulfonyl)propoxy)-9,10-dihydrophenanthren-3-yl)methoxy)phenyl)cyclopropanecarboxylic acid] | 45.7 nM
15 | CS(=O)(=O)CCCOc1ccc2c(c1)COCc1ccc(CNc3ccc([C@H]4C[C@@H]4C(=O)O)cc3)cc1-2 [Example 18, (1S,2S)-2-(4-(((9-(3-(methylsulfonyl)propoxy)-5,7-dihydrodibenzo[c,e]oxepin-2-yl)methyl)amino)phenyl)cyclopropanecarboxylic acid] | 752 nM
16 | CCN1CCc2cc(OCCCS(C)(=O)=O)ccc2-c2cc(COc3ccc4c(c3)OC[C@H]4CC(=O)O)ccc21 [Example 44, (S)-2-(6-((5-ethyl-9-(3-(methylsulfonyl)propoxy)-6,7-dihydro-5H-dibenzo[b,d]azepin-2-yl)methoxy)-2,3-dihydrobenzofuran-3-yl)acetic acid] | 75.7 nM
17 | CCS(=O)(=O)CCCOc1cc(C)c2c(c1)CCCc1ccc(COc3ccc([C@H]4C[C@@H]4C(=O)O)cc3)cc1-2 [Example 61, (1S,2S)-2-(4-((9-(3-(ethylsulfonyl)propoxy)-11-methyl-6,7-dihydro-5H-dibenzo[a,c][7]annulen-2-yl)methoxy)phenyl)cyclopropanecarboxylic acid] | 26.6 nM
18 | CC#C[C@@H](CC(=O)O)c1ccc(OCc2ccc3c(c2)-c2ccc(OCC4CCS(=O)(=O)CC4)cc2CCC3)cc1 [Example 109, (S)-3-(4-((9-((1,1-dioxidotetrahydro-2H-thiopyran-4-yl)methoxy)-6,7-dihydro-5H-dibenzo[a,c][7]annulen-2-yl)methoxy)phenyl)hex-4-ynoic acid] | 5.6 nM

The molecules below were run on male ZFDM rats (assay: Hypoglycemic rate after oral glucose loading in rats). Conditions: oral 0.1 to 30 mg/kg one hour before glucose loading (1.5 g/kg), blood glucose AUC 0 to 120 minutes versus control.
Assay type: in vivo, rat
Method: Measurement of Hypoglycemic Rate in Rats
An effect of the compound according to one exemplary embodiment of the present invention on blood glucose inhibition after glucose loading was examined in male ZFDM rats (Japan SLC, Inc.).
Specifically, male ZFDM rats (7 week-old) pre-fed for a week were fasted overnight, and used as an animal to be tested. A test compound was prepared into a 0.5% methylcellulose suspension, which was orally administered to rats at a dose of 0.1 to 30 mg/kg before an hour of glucose loading (1.5 g/kg). As the control, 0.5% methylcellulose was administered. After the glucose administration, blood was drawn from the rats' tails after 0, 15, 30, 60 and 120 minutes to measure a blood glucose level. The area under the curve (AUC) for compound treatment was calculated using a blood glucose change profile from t=0 to 120 minutes, and a hypoglycemic rate (%) for the control was calculated.

Row | SMILES | Hypoglycemic rate
19 | Cc1cc(OCCCS(C)(=O)=O)cc2c1-c1cc(COc3ccc4c(c3)OC[C@H]4CC(=O)O)ccc1OC2 [Example 26, (S)-2-(6-((10-methyl-8-(3-(methylsulfonyl)propoxy)-6H-benzo[c]chromen-2-yl)methoxy)-2,3-dihydrobenzofuran-3-yl)acetic acid] | 31.0%
20 | O=C(O)[C@H]1C[C@@H]1c1ccc(NCc2ccc3c(c2)-c2ccc(OCC4CCS(=O)(=O)CC4)cc2CCC3)cc1 [Example 78, (1S,2S)-2-(4-(((9-((1,1-dioxidotetrahydro-2H-thiopyran-4-yl)methoxy)-6,7-dihydro-5H-dibenzo[a,c][7]annulen-2-yl)methyl)amino)phenyl)cyclopropanecarboxylic acid] | 27.4%
21 | CC#C[C@@H](CC(=O)O)c1ccc(OCc2ccc3c(c2)-c2ccc(OCCCS(C)(=O)=O)cc2CCC3)cc1 [Example 108, (S)-3-(4-((9-(3-(methylsulfonyl)propoxy)-6,7-dihydro-5H-dibenzo[a,c][7]annulen-2-yl)methoxy)phenyl)hex-4-ynoic acid] | 37.5%
